Key:
[1] = MTT cell viability assay, mouse hepatocytes (serum-free RPMI-1640); type: cell-based; settings: BALB/c, isolated mouse hepatocytes
Hep 3B/T2 cells [2] = experiment: Tumor growth of Hep 3B/T2 cells in nude mice; type: in vivo, BALB/c-nu/nu nude mice
Description: The descriptive statistics were summarized as mean±STD. For statistical analysis, Student's t-test was used to determine significance of mean differences between groups.

Hep 3B cells = experiment: Cell cycle determination by flow cytometry, Hep 3B; type: cell-based, human; settings: cell line not given
Hep 3B/T2 cells [3] = experiment: Tumor growth of Hep 3B/T2 cells in nude mice; type: in vivo, BALB/c-nu/nu nude mice; remark: listed apart in the source
[4] = MTT cell viability assay, Hep G2 cells (serum-free DMEM); settings: human, Hep G2 cells, Cell viability
Description: Human hepatoma cell lines Hep G2 and Hep 3 were chosen as the in vitro models of hepatocytes and hepatoma, respectively.

[5] = Cycle 1 (Day 42), LOV 37.5 mg/kg/day p.o. days 28-34 and 49-55 and/or taxol 120 μg/kg/2 day i.p. day 36, 38, 40, 57, 59, 61
[6] = Cycle 2 (Day 63), LOV 37.5 mg/kg/day p.o. days 28-34 and 49-55 and/or taxol 120 μg/kg/2 day i.p. day 36, 38, 40, 57, 59, 61

Work on CC[C@H](C)C(=O)O[C@H]1C[C@@H](C)C=C2C=C[C@H](C)[C@H](CC[C@@H]3C[C@@H](O)CC(=O)O3)[C@H]21 [Lovastatin, lovastatin] yielded a viability at 72 h, 1 μM [1] of 91.9 ± 2.7%, a viability at 72 h, 2 μM [1] of 85 ± 4.5% and a viability at 72 h, 5 μM [1] of 84.7 ± 13.3%. It also gave a viability at 72 h, 10 μM [1] of 80.4 ± 9.9%, a viability at 72 h, 20 μM [1] of 74.9 ± 5.1% and a viability at 72 h, 50 μM [1] of 39.1 ± 10.6%. For the same compound, the Tumor size (Hep 3B/T2 cells [2]; [5]) was 0.533 cm^3, the Tumor size (Hep 3B/T2 cells [2]; [6]) was 1.263 cm^3 and the “percentage of inhibition of tumor size” value (Hep 3B/T2 cells [2]; [6]) was “(−49.5%”. It also gave a Tumor size (Hep 3B/T2 cells [2]; Day 15, LOV 75 mg/kg/day p.o. days 8-14 and/or taxol 120 μg/kg/day i.p. days 15-19, n = 3) of 0.050 cm^3, a Tumor size (Hep 3B/T2 cells [2]; Day 20, LOV 75 mg/kg/day p.o. days 8-14 and/or taxol 120 μg/kg/day i.p. days 15-19, n = 3) of 0.051 cm^3 and a Tumor size (Hep 3B/T2 cells [2]; Day 23, LOV 75 mg/kg/day p.o. days 8-14 and/or taxol 120 μg/kg/day i.p. days 15-19, n = 3) of 0.059 cm^3. For the same compound, the “Tumor size (1 × w^2 × 0.52 cm^3) Day 28” value (Hep 3B/T2 cells [2]; Day 28 after inoculation of 1 × 10^7 Hep 3B/T2 cells in male BALB/c-nu/nu nude mice, p.o. lovastatin 37.5 mg/kg/day (days 28-34, 49-55) and/or i.p. taxol 120 μg/kg/2 day (days 36, 38, 40, 57, 59, 61), mean ± SEM) was 0.170 cm^3, the Tumor size (Hep 3B/T2 cells [2]; after two cycles: lovastatin fed 7 days, then paclitaxel injected 3 days (FIG. 38), mean±STD) was 1.26±1.82 cm^3 and the “cell cycle arrest stage” value (Hep 3B cells) was “G0/G1 arrest”. For the same compound, the “percentage of inhibition of tumor size” value (Hep 3B/T2 cells [3]; [5]) was “(−43.6%”, the Tumor size (Hep 3B/T2 cells [3]; Day 8, LOV 75 mg/kg/day p.o. days 8-14 and/or taxol 120 μg/kg/day i.p. days 15-19, n = 3) was 0.111 cm^3 and the Tumor size (Hep 3B/T2 cells [3]; Day 11, LOV 75 mg/kg/day p.o. days 8-14 and/or taxol 120 μg/kg/day i.p. days 15-19, n = 3) was 0.048 cm^3. The Tumor size (Hep 3B/T2 cells [3]; Day 17, LOV 75 mg/kg/day p.o. days 8-14 and/or taxol 120 μg/kg/day i.p. days 15-19, n = 3) was 0.050 cm^3, the Tumor size (Hep 3B/T2 cells [3]; Day 26, LOV 75 mg/kg/day p.o. days 8-14 and/or taxol 120 μg/kg/day i.p. days 15-19, n = 3) was 0.121 cm^3 and the Tumor size (Hep 3B/T2 cells [3]; Day 29, LOV 75 mg/kg/day p.o. days 8-14 and/or taxol 120 μg/kg/day i.p. days 15-19, n = 3) was 0.154 cm^3. For the same compound, the “Tumor size (1 × w^2 × 0.52 cm^3) Day 35” value (Hep 3B/T2 cells [3]; Day 35 after inoculation, p.o. lovastatin 37.5 mg/kg/day (days 28-34, 49-55) and/or i.p. taxol 120 μg/kg/2 day (days 36, 38, 40, 57, 59, 61), mean ± SEM) was 0.200 cm^3, the “Tumor size (1 × w^2 × 0.52 cm^3) Day 38” value (Hep 3B/T2 cells [3]; Day 38 after inoculation, p.o. lovastatin 37.5 mg/kg/day (days 28-34, 49-55) and/or i.p. taxol 120 μg/kg/2 day (days 36, 38, 40, 57, 59, 61), mean ± SEM) was 0.301 cm^3 and the “Tumor size (1 × w^2 × 0.52 cm^3) Day 42” value (Hep 3B/T2 cells [3]; Day 42 after inoculation, p.o. lovastatin 37.5 mg/kg/day (days 28-34, 49-55) and/or i.p. taxol 120 μg/kg/2 day (days 36, 38, 40, 57, 59, 61), mean ± SEM) was 0.533 cm^3. The “Tumor size (1 × w^2 × 0.52 cm^3) Day 49” value (Hep 3B/T2 cells [3]; Day 49 after inoculation, p.o. lovastatin 37.5 mg/kg/day (days 28-34, 49-55) and/or i.p. taxol 120 μg/kg/2 day (days 36, 38, 40, 57, 59, 61), mean ± SEM) was 0.665 cm^3, the “Tumor size (1 × w^2 × 0.52 cm^3) Day 56” value (Hep 3B/T2 cells [3]; Day 56 after inoculation, p.o. lovastatin 37.5 mg/kg/day (days 28-34, 49-55) and/or i.p. taxol 120 μg/kg/2 day (days 36, 38, 40, 57, 59, 61), mean ± SEM) was 0.995 cm^3 and the “Tumor size (1 × w^2 × 0.52 cm^3) Day 63” value (Hep 3B/T2 cells [3]; Day 63 after inoculation, p.o. lovastatin 37.5 mg/kg/day (days 28-34, 49-55) and/or i.p. taxol 120 μg/kg/2 day (days 36, 38, 40, 57, 59, 61), mean ± SEM) was 1.263 cm^3. For the same compound, the Tumor size (Hep 3B/T2 cells [3]; end of one cycle of treatment, n=6 (FIG. 41)) was 2.24±2.38 cm^3, the viability at 48 h, 1 μM ([4]; LOV 1 μM, 48 hr) was 91.8 ± 2.1% and the viability at 72 h, 1 μM ([4]; LOV 1 μM, 72 hr) was 88.7 ± 1.3%. The viability at 48 h, 2 μM ([4]; LOV 2 μM, 48 hr) was 90.7 ± 1.5%, the viability at 72 h, 2 μM ([4]; LOV 2 μM, 72 hr) was 86.2 ± 1.9% and the viability at 48 h, 5 μM ([4]; LOV 5 μM, 48 hr) was 87.2 ± 3.1%. The viability at 48 h, 5 μM ([4]; LOV 5 μM, 48 hr, Table 4) was 87.2 ± 3.1%, the viability at 72 h, 5 μM ([4]; LOV 5 μM, 72 hr) was 80.9 ± 4.4% and the viability at 72 h, 5 μM ([4]; LOV 5 μM, 72 hr, Table 4) was 80.9 ± 4.4%. It also gave a viability at 96 h, 5 μM ([4]; LOV 5 μM, 96 hr) of 63.2 ± 2%, a viability at 120 h, 5 µM ([4]; LOV 5 μM, 120 hr) of 55.1 ± 5% and a viability at 48 h, 10 μM ([4]; LOV 10 μM, 48 hr) of 85.8 ± 2.7%. The viability at 48 h, 10 μM ([4]; LOV 10 μM, 48 hr, Table 4) was 85.8 ± 2.7%, the viability at 72 h, 10 μM ([4]; LOV 10 μM, 72 hr) was 78.7 ± 5.3% and the viability at 72 h, 10 μM ([4]; LOV 10 μM, 72 hr, Table 4) was 78.7 ± 5.3%. For the same compound, the viability at 96 h, 10 μM ([4]; LOV 10 μM, 96 hr) was 55.1 ± 5%, the viability at 120 h, 10 µM ([4]; LOV 10 μM, 120 hr) was 33.8 ± 3.8% and the viability at 48 h, 20 μM ([4]; LOV 20 μM, 48 hr) was 79.9 ± 2.7%. For the same compound, the viability at 72 h, 20 μM ([4]; LOV 20 μM, 72 hr) was 75.3 ± 4.2%, the viability at 72 h, 50 μM ([4]; LOV 50 μM 48 hr, then LOV 50 μM without MVA another 24 hr) was 57.8 ± 6.2% and the viability at 96 h, 50 µM ([4]; LOV 50 μM 48 hr, then LOV 50 μM without MVA another 48 hr) was 12.7 ± 2.6%. It also gave a viability at 120 h, 50 µM ([4]; LOV 50 μM 48 hr, then LOV 50 μM without MVA another 72 hr) of 4 ± 0.6%, a viability at 48 h, 50 μM ([4]; LOV 50 μM, 48 hr) of 73.1 ± 3.2% and a viability at 72 h, 50 μM ([4]; LOV 50 μM, 72 hr) of 58.2 ± 4.2%. The viability at 72 h, 1 μM ([4]; lovastatin 1 μM, 72 hr) was 88.7 ± 1.3%, the viability at 72 h, 2 μM ([4]; lovastatin 2 μM, 72 hr) was 86.2 ± 1.9% and the viability at 48 h, 5 μM ([4]; lovastatin 5 μM 48 hr, then no CAPE 48 hr) was 75.2 ± 1.6%. It also gave a viability at 48 h, 5 μM ([4]; lovastatin 5 μM 48 hr, then no taxol 48 hr) of 85.8 ± 4.5%, a viability at 72 h, 5 μM ([4]; lovastatin 5 μM 72 hr, then no taxol 48 hr) of 81.3 ± 3.8% and a viability at 72 h, 5 μM ([4]; lovastatin 5 μM 72 hr, then no taxol 72 hr) of 67.2 ± 0.5%. It also gave a viability at 72 h, 5 μM ([4]; lovastatin 5 μM alone, 72 hr, Table 23) of 66.8 ± 1.5%, a viability at 72 h, 5 μM ([4]; lovastatin 5 μM, 72 hr) of 80.9 ± 4.4% and a viability at 48 h, 10 μM ([4]; lovastatin 10 μM 48 hr, then no CAO 48 hr) of 75 ± 3.3%. It also gave a viability at 48 h, 10 μM ([4]; lovastatin 10 μM 48 hr, then no CAPE 48 hr) of 66.7 ± 2.4%, a viability at 10 µM ([4]; lovastatin 10 μM 48 hr, then no GL-M1 48 hr) of 76.9 ± 2.6% and a viability at 48 h, 10 μM ([4]; lovastatin 10 μM 48 hr, then no taxol 48 hr) of 69.1 ± 3.1%. The viability at 72 h, 10 μM ([4]; lovastatin 10 μM 72 hr, then no taxol 48 hr) was 54.7 ± 5.9% and the viability at 72 hr, 10 μM ([4]; lovastatin 10 μM 72 hr, then no taxol 72 hr) was 48 ± 2.9%.
